Test results taken from ChEMBL document CHEMBL1123235, “Cholecystokinin antagonists. Synthesis of asperlicin analogues with improved potency and water solubility” (J Med Chem, 1986).

Biological target: T1, Cholecystokinin receptor (Rattus norvegicus, UniProt P30551+P30553)
T1 sequence (P30551 whole entry): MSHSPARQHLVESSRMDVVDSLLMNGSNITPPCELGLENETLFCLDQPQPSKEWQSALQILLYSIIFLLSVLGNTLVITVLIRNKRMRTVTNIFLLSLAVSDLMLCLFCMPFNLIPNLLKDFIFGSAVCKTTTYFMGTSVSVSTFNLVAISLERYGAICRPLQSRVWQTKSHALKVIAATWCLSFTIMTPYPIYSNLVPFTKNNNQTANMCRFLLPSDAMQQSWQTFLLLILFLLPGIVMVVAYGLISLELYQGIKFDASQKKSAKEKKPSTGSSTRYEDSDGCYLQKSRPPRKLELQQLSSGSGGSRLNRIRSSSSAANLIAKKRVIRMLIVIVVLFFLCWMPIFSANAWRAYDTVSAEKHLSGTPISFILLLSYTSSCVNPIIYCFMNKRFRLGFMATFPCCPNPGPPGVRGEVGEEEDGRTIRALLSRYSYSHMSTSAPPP
T1 sequence (P30553 whole entry): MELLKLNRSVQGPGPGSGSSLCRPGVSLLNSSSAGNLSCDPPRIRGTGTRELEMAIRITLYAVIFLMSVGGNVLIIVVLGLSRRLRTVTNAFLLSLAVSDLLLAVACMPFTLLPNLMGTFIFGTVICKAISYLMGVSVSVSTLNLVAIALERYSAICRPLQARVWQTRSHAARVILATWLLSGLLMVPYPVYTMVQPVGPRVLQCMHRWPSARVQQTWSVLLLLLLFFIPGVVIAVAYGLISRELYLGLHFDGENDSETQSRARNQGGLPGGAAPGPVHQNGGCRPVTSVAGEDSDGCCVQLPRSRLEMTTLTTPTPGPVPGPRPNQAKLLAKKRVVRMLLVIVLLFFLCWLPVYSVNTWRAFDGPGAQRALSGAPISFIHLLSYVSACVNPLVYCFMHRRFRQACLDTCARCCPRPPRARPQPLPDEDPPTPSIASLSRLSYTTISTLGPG
Assay: Inhibition of [125I]CCK binding to rat pancreatic Cholecystokinin receptor
Format: protein assay

Row | IC50 [µM] | SMILES
1 | > 100 | CC(C)C[C@H]1C(=O)N2c3ccccc3[C@@](O)(C[C@@H]3NC(=O)c4ccccc4-n4c3nc3ccccc3c4=O)[C@H]2N1C(=O)C(Cc1ccc(OCc2ccccc2)cc1)NC(=O)OC(C)(C)C (stereo partly drawn)
2 | 5 | CC(C)C[C@H]1C(=O)N2c3ccccc3[C@@](O)(C[C@@H]3NC(=O)c4ccccc4-n4c3nc3ccccc3c4=O)[C@H]2N1C(=O)OCc1ccccc1
3 | 85 | CC(C)C[C@@H]1N[C@H]2N(C1=O)c1ccccc1[C@]2(C[C@@H]1NC(=O)c2ccccc2-n2c1nc1ccccc1c2=O)OC(=O)CCC(=O)O
4 | 0.4 | CCN1[C@H]2N(C(=O)[C@@H]1CC(C)C)c1ccccc1[C@@]2(O)C[C@@H]1NC(=O)c2ccccc2N2C(=O)c3ccccc3NC12 (stereo partly drawn)
5 | 100 | CC(C)C[C@H]1C(=O)N2c3ccccc3[C@](C[C@@H]3NC(=O)c4ccccc4-n4c3nc3ccccc3c4=O)(OC(=O)CCC(=O)OCc3ccccc3)[C@H]2N1C(=O)OCc1ccccc1
6 | 22 | CC(=O)N1[C@H]2N(C(=O)[C@@H]1CC(C)C)c1ccccc1[C@@]2(O)C[C@@H]1NC(=O)c2ccccc2-n2c1nc1ccccc1c2=O
7 | > 100 | CC(C)C[C@H]1C(=O)N2c3ccccc3[C@@](O)(C[C@@H]3NC(=O)c4ccccc4-n4c3nc3ccccc3c4=O)[C@H]2N1C(=O)C(CCCCNC(=O)OCc1ccccc1)NC(=O)OC(C)(C)C (stereo partly drawn)
8 | > 100 | CC(C)C[C@H]1C(=O)N2c3ccccc3[C@@](O)(C[C@@H]3NC(=O)c4ccccc4-n4c3nc3ccccc3c4=O)[C@H]2N1C(=O)CCC(=O)O
9 | 4.3 | CC(C)C[C@H]1C(=O)N2c3ccccc3[C@@](O)(C[C@@H]3NC(=O)c4ccccc4-n4c3nc3ccccc3c4=O)[C@H]2N1C(=O)C(CCCNC(=O)OCc1ccccc1)NC(=O)OC(C)(C)C (stereo partly drawn)
10 | 4.3 | CC(C)C[C@H]1C(=O)N2c3ccccc3[C@@](O)(C[C@@H]3NC(=O)c4ccccc4N4C(=O)c5ccccc5NC34)[C@H]2N1C(=O)CCC(=O)O (stereo partly drawn)
11 | 2.5 | CC(C)C[C@H]1C(=O)N2c3ccccc3[C@@](O)(C[C@@H]3NC(=O)c4ccccc4-n4c3nc3ccccc3c4=O)[C@H]2N1C(=O)C(N)CCCCN.Cl (stereo partly drawn)
12 | 100 | CC(C)C[C@H]1C(=O)N2c3ccccc3[C@](C[C@@H]3NC(=O)c4ccccc4N4C(=O)c5ccccc5NC34)(OC(=O)CCC(=O)OCc3ccccc3)[C@H]2N1C(=O)OCc1ccccc1 (stereo partly drawn)
13 | 1 | CC(C)C[C@H]1C(=O)N2c3ccccc3[C@@](O)(C[C@@H]3NC(=O)c4ccccc4N4C(=O)c5ccccc5NC34)[C@H]2N1C(=O)CCC(=O)[O-].[Na+] (stereo partly drawn)
14 | 46 | CC(C)C[C@H]1C(=O)N2c3ccccc3[C@@](O)(C[C@@H]3NC(=O)c4ccccc4-n4c3nc3ccccc3c4=O)[C@H]2N1C(=O)C(Cc1ccc(O)cc1)NC(=O)OC(C)(C)C (stereo partly drawn)
15 | 0.2 | CC(C)C[C@@H]1N[C@H]2N(C1=O)c1ccccc1[C@@]2(O)C[C@@H]1NC(=O)c2ccccc2N2C(=O)c3ccccc3NC12 (stereo partly drawn)
16 | 1.3 | CC(C)C[C@H]1C(=O)N2c3ccccc3[C@@](O)(C[C@@H]3NC(=O)c4ccccc4N4C(=O)c5ccccc5NC34)[C@H]2N1C(=O)C(CCCNC(=O)OCc1ccccc1)NC(=O)OC(C)(C)C (stereo partly drawn)
17 | 0.2 | CC(C)C[C@H]1C(=O)N2c3ccccc3[C@@](O)(C[C@@H]3NC(=O)c4ccccc4N4C(=O)c5ccccc5NC34)[C@H]2N1CCCc1ccccc1 (stereo partly drawn)
